Test results taken from patent US8574578B2, “Antibodies against PDGFRα to inhibit tumor growth” (ImClone LLC, priority 2006, dated 2013).

Experiments:
[1] = system: glioblastoma (U118) xenograft; experiment: U118 glioblastoma s.c. xenograft growth; format: in vivo, athymic nude mice
Source text: (§1) S.c. tumor xenografts were established by injecting 10×10^6 SKLMS-1 or U118 cells mixed in Matrigel (Collaborative Research Biochemicals, Bedford, Mass.) into female athymic nude mice (Crl:NU/NU-nuBR, Charles River Laboratories, Wilmington, Mass.). Tumors were allowed to reach a mean tumor volume (π/6×longest length×perpendicular width^2) of about 400 mm^3. The mice were randomized into five groups (n=12) and treated by i.p. injection twice weekly for the duration of the study. Group 1 mice were treated with vehicle control (0.9% NaCl, USP for Irrigation, B/Braun). Groups 2 to 4 mice were treated with 6, 20, and 60 mg/kg of the instant anti-PDGFRα antibody. Group 5 mice were treated with 60 mg/kg human IgG (Sigma). Groups treated with 6, 20, or 60 mg/kg anti-PDGFRα antibody or human IgG were given 21.4, 71.4, and 214 mg/kg loading doses, respectively. The loading doses were calculated to achieve a steady state plasma concentration from the first dose (elimination half-life, 7 days) using a dosing regimen of twice weekly. Tumor volumes were evaluated twice weekly and tumor growth in the treatment groups was compared with a repeated measures ANOVA.
(§2) Resected tumors were fixed in QDL fixative at 4° C. for 24 hours. After paraffin embedding and sectioning at 4 μm, formalin-fixed sections were stained with Mayer's H&E (Richard Allen, Kalamazoo, Mich.).

SKLMS-1 cells [2] = experiment: PDGF-AA-induced Akt and MAPK phosphorylation in SKLMS-1 cells; format: cell-based, human; conditions: PDGF-AA stimulation of SKLMS-1 cells
Method: (§3) Cells were seeded in six-well Falcon tissue culture plates (250,000 cells per well) and allowed to grow overnight. Wells were then rinsed and incubated in serum-free medium. After an overnight incubation to render cells quiescent, the cells were treated with antibodies for 30 minutes at 37° C. followed by addition of PDGF-AA or PDGF-BB and incubation for an additional 10 minutes at 37° C. Cells were then detached and lysed in 200 μL lysis buffer (50 mmol/L Tris-HCl (pH 8.0), 1% Triton X-100, 150 mmol/L NaCl, 1 mmol/L EDTA, 0.1% SDS, 1 mmol/L sodium orthovanadate, and protease inhibitors (Complete Mini, Roche, Mannheim, Germany)). Cell lysates were analyzed by SDS-PAGE and Western blotting using enhanced chemiluminescence reagents and Hyperfilm (Amersham Biosciences).
(§4) Human tumor cell lines expressing PDGFRα were tested to determine the affects of the human anti-PDGFRα antibody on malignant growth in in vitro and in vivo systems. Two such tumor cell lines that express PDGFRα as determined by flow cytometry are SKLMS-1 (leiomyosarcoma) and U118 (glioblastoma). These cell lines also respond to ligand in mitogenic assays and form tumors in mice. SKLMS-1 has the potential for not only paracrine but also autocrine stimulation.

[3] = Elimination half-life used for loading dose calculation; set-up: species or system mice; conditions: mouse, in vivo
Source text: as §1

PDGFRα [4] = molecular target: T1, PDGFRα (Homo sapiens, UniProt P16234); experiment: PDGFRα phosphotyrosine level in U118 tumors in vivo; set-up: Two such tumor cell lines that express PDGFRα as determined by flow cytometry are SKLMS-1 (leiomyosarcoma) and U118 (glioblastoma); endogenous in cells; host or cells: U118 human glioblastoma cells grown as s.c. xenograft tumors in athymic nude mice; species or system mice with U118 tumors; conditions: 214 mg/kg loading dose, 60 mg/kg 72 hours later; harvested at 168 hours; relative to human IgG control
T1 sequence (P16234 24-1089): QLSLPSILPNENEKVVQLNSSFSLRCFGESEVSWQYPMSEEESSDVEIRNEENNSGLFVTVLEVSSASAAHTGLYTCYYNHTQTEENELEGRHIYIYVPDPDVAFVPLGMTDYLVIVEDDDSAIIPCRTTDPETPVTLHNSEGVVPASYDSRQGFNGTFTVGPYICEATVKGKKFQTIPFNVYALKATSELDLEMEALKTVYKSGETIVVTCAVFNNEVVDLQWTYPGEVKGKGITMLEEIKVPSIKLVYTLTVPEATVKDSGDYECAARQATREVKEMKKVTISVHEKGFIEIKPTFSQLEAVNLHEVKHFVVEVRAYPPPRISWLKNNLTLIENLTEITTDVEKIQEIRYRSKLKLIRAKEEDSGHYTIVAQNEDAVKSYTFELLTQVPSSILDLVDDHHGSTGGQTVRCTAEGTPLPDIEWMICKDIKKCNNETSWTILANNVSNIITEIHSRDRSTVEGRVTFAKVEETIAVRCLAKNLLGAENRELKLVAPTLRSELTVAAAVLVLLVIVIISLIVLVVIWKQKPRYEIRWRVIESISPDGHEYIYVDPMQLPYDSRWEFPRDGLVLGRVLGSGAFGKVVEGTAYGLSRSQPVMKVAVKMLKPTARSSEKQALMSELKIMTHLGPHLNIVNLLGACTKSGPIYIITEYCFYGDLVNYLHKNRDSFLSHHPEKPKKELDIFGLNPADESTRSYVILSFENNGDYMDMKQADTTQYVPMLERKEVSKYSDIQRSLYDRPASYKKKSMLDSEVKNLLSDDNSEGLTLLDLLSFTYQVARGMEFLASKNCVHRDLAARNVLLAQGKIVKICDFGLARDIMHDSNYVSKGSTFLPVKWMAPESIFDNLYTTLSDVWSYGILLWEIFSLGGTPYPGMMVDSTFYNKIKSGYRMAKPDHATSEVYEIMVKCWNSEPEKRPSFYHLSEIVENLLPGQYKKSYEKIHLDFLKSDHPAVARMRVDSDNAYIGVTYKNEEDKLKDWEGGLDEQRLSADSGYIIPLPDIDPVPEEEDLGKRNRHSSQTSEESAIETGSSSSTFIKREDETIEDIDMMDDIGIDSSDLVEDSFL
Method: The level of receptor phosphotyrosine in U118 tumors was evaluated one week after treatment with anti-PDGFRα antibody or human IgGt. Mice with established U118 tumors (500 mm^3) were treated with a 214 mg/kg loading dose followed 72 hours later by a 60 mg/kg maintenance dose of antibody. Tumors were harvested from mice one week (168 hours) after the first antibody injection (at a time before tumor regression is observed on average; see FIG. 18A) and homogenized in phosphorylation assay lysis buffer (see above). The lysates were centrifuged twice at 14,000 rpm and the protein concentration for the collected supernatant was determined (Bio-Rad protein assay, Bio-Rad, Hercules, Calif.). Lysate (4 mg) from each sample was immunoprecipitation using anti-PDGFRα antibody. Immunoprecipitated human PDGFRα was then immunoblotted with either an anti-PDGFR or anti-phosphotyrosine antibody.

U118 cells [5] = experiment: PDGF-AA-induced downstream-effector phosphorylation in U118 cells; format: cell-based, human
Method: as §3, §4

SKLMS-1 cells [6] = experiment: PDGF-stimulated [3H]thymidine incorporation in SKLMS-1 cells; format: cell-based, human
Method: (§5) The ant-PDGFRα monoclonal antibody was tested for its ability to block PDGFAA-induced mitogenesis of PAE Rα cells. Cells were seeded in 96-well tissue culture plates (1×10^4 cells per well) and grown overnight in 100 μL medium per well. The wells were then rinsed with serum-free medium and cells were serum starved overnight with 75 μL serum-free medium added to each well. IgG was added (25 μL/well) and the plates were incubated for 30 minutes at 37° C. PDGF-AA or PDGF-BB (25 μL/well) was then added and plates were incubated for 18 to 20 hours at 37° C. Plates were incubated for an additional 4 hours after each well received 0.25 μCi [^3H]thymidine (25 μL/well). Antibody, PDGF, and [^3H]thymidine were all diluted in serum-free medium. Cells were then washed with PBS plus 1% bovine serum albumin and detached by treatment with trypsin (100 μL/well). […] After processing the filter, DNA incorporated radioactivity was determined on a scintillation counter (Wallac Microbeta, model 1450).
(§6) Human tumor cell lines expressing PDGFRα were tested to determine the affects of the human anti-PDGFRα antibody on malignant growth in in vitro and in vivo systems. Two such tumor cell lines that express PDGFRα as determined by flow cytometry are SKLMS-1 (leiomyosarcoma) and U118 (glioblastoma). […]

U118 cells [7] = experiment: PDGF-stimulated [3H]thymidine incorporation in U118 cells; format: cell-based, human; conditions: at 66 nmol/L
Method: as §5, §6

[8] = system: leiomyosarcoma (SKLMS-1) xenograft; experiment: SKLMS-1 leiomyosarcoma s.c. xenograft growth; format: in vivo, athymic nude mice
Source text: as §1, §2

[9] = system: Akt phosphorylation in PC3-ML cells; experiment: Akt phosphorylation in PC3-ML cells (Western blot); format: cell-based, human
Method: Bone marrow samples from normal male donors (ages 18-45) were supplied by Cambrex (Poietics™ Donor Program). Samples were centrifuged at 1,500 rpm in order to separate the soluble and cellular phases. The supernatant was filtered using 0.8 μm and 0.22 μm filters in succession. 50 μl of bone marrow aspirate was administered to cells in 1 ml of medium (1:20 final dilution).
For experiments performed in the presence of serum, cells were cultured in DMEM supplemented with 10% FBS and 50 μg/ml gentamycin for 24 hours prior to exposure to bone marrow. For experiments in the absence of serum (starved cells), cells were washed twice with PBS, the growth medium was replaced with serum-free DMEM, and the cells were incubated for 4 hours prior to exposure to bone marrow preparations. When used, AG-1296, a specific inhibitor of PDGF receptors (Rice et al., 1999, Amer. J. Path. 155, 213-21) was added to cultures 30 min. prior to exposure to bone marrowaspirate. IMC-3G3 antibodies were administered as described at pre-treatment times as stated below.

PDGFRα [10] = molecular target: T1, PDGFRα; experiment: Ligand-induced PDGFRα tyrosine phosphorylation in PAE Rα cells; format: cell-based, porcine aortic endothelial cells stably expressing PDGFRα; set-up: expressed in transfected cells; host or cells: porcine aortic endothelial cells (PAE Rα)
Method: as §3

## IMC-3G3: human anti-PDGFRα monoclonal antibody; heavy chain variable region SEQ ID NO:8, light chain variable region SEQ ID NO:16
[1]; 6 mg/kg
  tumor regression: 4 of 12
[1]; 6 mg/kg i.p. twice weekly
  % T/C at end of study: 67%
[1]; 20 mg/kg
  tumor regression: 5 of 11
[1]; 20 mg/kg i.p. twice weekly
  % T/C at end of study: 63%
[1]; 60 mg/kg
  tumor regression: 10 of 12
[1]; 60 mg/kg i.p. twice weekly
  % T/C at end of study: 35%
[1]; 60 mg/kg, compared with saline-control group
  histologic examination of xenografts: fewer viable tumor cells
SKLMS-1 cells [2]
  inhibition of Akt phosphorylation: 100%
  inhibition of MAPKs phosphorylation: about 80%
[3]
  elimination half-life: 170 h
PDGFRα [4]
  level of PDGFRα phosphotyrosine in U118 tumors: reduction in the level of PDGFRα phosphotyrosine
U118 cells [5]
  inhibition of phosphorylation in U118 cells: effective inhibitor of phosphorylation
SKLMS-1 cells [6]
  PDGF-BB-stimulated mitogenic response: inhibited
U118 cells [7]
  inhibition of PDGF-BB-stimulated mitogenic response: 40%
[8]; 6 mg/kg i.p. twice weekly
  final % TIC: 66%
[8]; 20 mg/kg i.p. twice weekly
  final % TIC: 57%
[8]; 60 mg/kg i.p. twice weekly
  final % TIC: 31%
[8]; 6, 20 and 60 mg/kg
  tumor regressions: no tumor regressions
[8]; day 25, compared with saline-control group
  histologic examination of xenografts: reduction in the amount of viable tumor cells and cellular packing
[9]; 20 μg/ml, pre-incubation 30 minutes, 30 ng/ml PDGF-BB
  effect on PDGF-BB stimulated Akt phosphorylation: neutralized
[9]; 30-minute incubation time
  inhibition of bone marrow induced Akt phosphorylation: about 40%
[9]; bone marrow induced
  inhibitory effect on Akt phosphorylation, 120-minute vs 30-minute preincubation: significantly more effective
PDGFRα [10]
  PDGF-BB-induced receptor phosphorylation: near background levels
PDGFRα [10]; read-out: concentration for 50% inhibition of PDGFRα phosphorylation
  IC50: 250 pM
